Measured values reported in patent US7875587B2, “Peptide analogues of GIP for treatment of diabetes, insulin resistance and obesity” (UUTECH Limited, priority 2004, dated 2011).
No end group written: not given here.

What was measured:
Wistar rats = test: In vivo plasma glucose and insulin after i.p. glucose with peptide in Wistar rats; set-up: species or system rat; details: 10 nmol/kg i.p. with glucose
Description: In vivo biological activity of GIP and Tyr^1-glucitol GIP. Effects of GIP and Tyr^1-glucitol GIP on plasma glucose and insulin concentrations were examined using 10-12 week old male Wistar rats. The animals were housed individually in an air conditioned room and 22±2° C. with a 12 hour light/12 hour dark cycle. Drinking water and a standard rodent maintenance diet (Trouw Nutrition, Belfast, Northern Ireland) were supplied ad libitum. Food was withdrawn for an 18 hour period prior to intraperitoneal injection of glucose alone (18 mmol/kq body weight) or in combination with either GIP or Tyr^1-glucitol GIP (10 nmol/kg). Test solutions were administered in a final volume of 8 ml/kg body weight. Blood samples were collected at 0, 15, 30 and 60 minutes from the cut tip of the tail of conscious rats into chilled fluoride/heparin microcentrifuge tubes (Sarstedt, Numbrecht, Germany). Samples were centrifuged using a Beckman microcentrifuge for about 30 seconds at 13,000 g. Plasma samples were aliquoted and stored at −20° C. prior to glucose and insulin determinations. All animal studies were done in accordance with the Animals (Scientific Procedures) Act 1986.
Analyses. Plasma glucose was assayed by an automated glucose oxidase procedure using a Beckman Glucose Analyzer II [33]. Plasma insulin was determined by dextran charcoal radioimmunoassay as described previously. Incremental areas under plasma glucose and insulin area under the curve (AUC) were calculated using a computer program (CAREA) employing the trapezoidal rule with baseline subtraction. Results are expressed as mean±SEM and values were compared using the Student's unpaired t-test.

DPP IV = target: T1, DPP IV (Sus scrofa, UniProt P22411); test: Degradation of GIP and analogues by DPP IV (HPLC); assay type: in vitro ADME
T1 construct: purchased Sigma (Poole, Dorset, UK)
T1 sequence (P22411 whole entry): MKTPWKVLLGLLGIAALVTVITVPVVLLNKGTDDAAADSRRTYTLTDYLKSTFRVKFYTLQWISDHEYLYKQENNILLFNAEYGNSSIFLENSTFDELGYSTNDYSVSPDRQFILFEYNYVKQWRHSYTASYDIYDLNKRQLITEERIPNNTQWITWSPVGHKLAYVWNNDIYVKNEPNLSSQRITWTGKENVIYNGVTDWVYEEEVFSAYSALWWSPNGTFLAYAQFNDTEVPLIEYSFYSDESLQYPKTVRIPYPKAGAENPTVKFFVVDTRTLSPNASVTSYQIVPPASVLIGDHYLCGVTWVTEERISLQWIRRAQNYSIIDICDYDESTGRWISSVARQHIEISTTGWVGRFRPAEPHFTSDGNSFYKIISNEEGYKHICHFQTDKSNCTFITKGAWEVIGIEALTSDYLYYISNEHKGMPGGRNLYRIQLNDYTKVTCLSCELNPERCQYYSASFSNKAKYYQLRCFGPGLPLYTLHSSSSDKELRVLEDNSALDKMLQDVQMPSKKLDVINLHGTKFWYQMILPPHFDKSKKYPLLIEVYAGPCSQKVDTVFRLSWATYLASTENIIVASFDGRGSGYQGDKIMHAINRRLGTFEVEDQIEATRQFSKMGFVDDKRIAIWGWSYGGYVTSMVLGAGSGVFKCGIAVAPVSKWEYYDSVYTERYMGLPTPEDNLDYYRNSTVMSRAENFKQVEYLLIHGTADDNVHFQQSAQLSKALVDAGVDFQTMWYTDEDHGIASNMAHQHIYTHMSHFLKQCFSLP
Description: Degradation of GIP and Tyr^1-glucitol GIP by DPP IV. HPLC-purified GIP or Tyr^1-glucitol GIP were incubated at 37° C. with DPP-IV (5 mU) for various time periods in a reaction mixture made up to 500 μl with 50 mmol/l triethanolamine-HCl, pH 7.8 (final peptide concentration 1 mmol/l). Enzymatic reactions were terminated after 0, 2, 4 and 12 hours by addition of 5 μl of 10% (v/v) TFA/water. Samples were made up to a final volume of 1.0 ml with 0.12% (v/v) TFA and stored at −20° C. prior to HPLC analysis.
HPLC analysis of degraded GIP and Tyr^1-glucitol GIP. […] Using 0.1% (v/v) TFA in 70% acetonitrile/H20, the concentration of acetonitrile in the eluting solvent was raised from 0% to 31.5% over 15 min, to 38.5% over 30 minutes and from 38.5% to 70% over 5 minutes, using linear gradients. The absorbance was monitored at 206 nm and peak areas evaluated using a model 2221 LKB integrator. Samples recovered manually were concentrated using a Speed-Vac concentrator.
Electrospray ionization-mass spectrometry (ESI-MS) was carried out as described in Example 2. Degradation of GIP and novel GIP analogues by DPP IV and human plasma was carried out as described in Example 2.

normal mice = test: Chronic (11 days) (Pro3)GIP administration in normal mice; assay type: in vivo, mouse
Description: Effects of chronic (Pro^3)GIP administration on plasma glucose, insulin and glycated HbA1c in obese diabetic ob/ob mice and normal mice. Obese diabetic ob/ob mice and normal control mice aged 8-12 weeks were randomly divided into groups which received once daily subcutaneous injections (17:00 h) of either saline (0.9% w/v NaCl) or (Pro^3)GIP (25 nmol/kg body weight in saline). After 11 days, treatment was ceased. Food intake and body weight were recorded daily. Blood samples were collected from the cut tip of the tail of conscious mice into chilled fluoride/heparin coated glucose microcentrifuge tubes (Sarstedt, Numbrecht, Germany). Blood samples were immediately centrifuged using a Beckman microcentrifuge (Beckman Instruments, UK) for 30 seconds at 13000 g prior to glucose, insulin and HbA1c determinations.
Effects of chronic treatment with (Pro^3)GIP on glucose tolerance in ob/ob mice and normal mice. Plasma glucose and insulin concentrations were measured following intraperitoneal administration of glucose (18 mmol/kg body weight) in ob/ob and normal mice treated with either saline (0.9% w/v NaCl) or (Pro^3)GIP (25 nmol/kg body weight/day) for 11 days. […]
Determination of HbA1c, plasma glucose and insulin concentrations. HbA1c was measured in whole blood by ion-exchange high-performance liquid chromatography using the Menari HA-8140 kit (BIOMEN, Berkshire, UK). […]

[1] = isolated enzyme dpp iv, pH 7.8, % Intact peptide remaining after time (h)

| Molecule | overall insulin response (AUC) compared with glucose alone (Wistar rats) | plasma glucose concentrations and AUC compared with control group (Wistar rats; vs glucose alone, 0-60 min) | % Intact peptide remaining after time (h) (DPP IV; 0 h) | metabolised at 12 h, 1 mmol/l (DPP IV; isolated enzyme dpp iv, pH 7.8) | remaining at 2 h, 1 mmol/l (DPP IV; [1]) | remaining at 4 h, 1 mmol/l (DPP IV; [1]) | remaining at 8 h, 1 mmol/l (DPP IV; [1]) | remaining at 24 h, 1 mmol/l (DPP IV; [1]) | remaining at 4 h, 1 mmol/l (DPP IV; isolated enzyme dpp iv, pH 7.8, % intact after incubation with DPP IV) | glucose tolerance in normal mice after cessation (normal mice; 9 days after cessation of treatment) | glucose tolerance in normal mice (normal mice; daily treatment for 11 days) |
| --- | --- | --- | --- | --- | --- | --- | --- | --- | --- | --- | --- |
| CC[C@H](C)[C@H](NC(=O)[C@H](CO)NC(=O)[C@H](Cc1ccc(O)cc1)NC(=O)[C@H](CC(=O)O)NC(=O)[C@H](CO)NC(=O)[C@@H](NC(=O)[C@H](Cc1ccccc1)NC(=O)[C@@H](NC(=O)CNC(=O)[C@H](CCC(=O)O)NC(=O)[C@H](C)NC(=O)[C@@H](N)Cc1ccc(O)cc1)[C@@H](C)O)[C@@H](C)CC)C(=O)N[C@@H](C)C(=O)N[C@@H](CCSC)C(=O)N[C@@H](CC(=O)O)C(=O)N[C@@H](CCCCN)C(=O)N[C@H](C(=O)N[C@@H](Cc1c[nH]cn1)C(=O)N[C@@H](CCC(N)=O)C(=O)N[C@@H](CCC(N)=O)C(=O)N[C@@H](CC(=O)O)C(=O)N[C@@H](Cc1ccccc1)C(=O)N[C@H](C(=O)N[C@@H](CC(N)=O)C(=O)N[C@@H](Cc1c[nH]c2ccccc12)C(=O)N[C@@H](CC(C)C)C(=O)N[C@@H](CC(C)C)C(=O)N[C@@H](C)C(=O)N[C@@H](CCC(N)=O)C(=O)N[C@@H](CCCCN)C(=O)NCC(=O)N[C@@H](CCCCN)C(=O)N[C@@H](CCCCN)C(=O)N[C@@H](CC(N)=O)C(=O)N[C@@H](CC(=O)O)C(=O)N[C@@H](Cc1c[nH]c2ccccc12)C(=O)N[C@@H](CCCCN)C(=O)N[C@@H](Cc1c[nH]cn1)C(=O)N[C@@H](CC(N)=O)C(=O)N[C@H](C(=O)N[C@H](C(=O)N[C@@H](CCC(N)=O)C(=O)O)[C@@H](C)O)[C@@H](C)CC)C(C)C)[C@@H](C)CC [GIP 1–42, reference compound] | significantly greater | significantly lower | 100% | 60% | 52 ± 1% | 23 ± 1% | 0% | 0% | 54% | – | – |
| YAPGTFISDYSIAMDKIHQQDFVNWLLAQKGKKNDWKHNITQ [(Pro^3)GIP] | – | – | – | – | – | – | – | – | – | reversed 9 days after cessation of treatment | marked deterioration of glucose tolerance |
